Reference: patent US9211252B2, “Increased drug loading capacity of polymeric material” (Medtronic, Inc., priority 2007, dated 2015)
“Also recorded” adds a separate entry of the source. Where two headings read alike, the source gives them in different places.

Columns and labels:
[1] = Solvent swelling of silicone boots; format: physicochemical; details: silicone boots placed in solvent for 2 hours; solvent ratios by volume
Protocol: The effect of various solvents to swell (as determined by % weight increase) silicone boots was determined. Silicone boots were weighed, placed in a solvent for 2 hours, and weighed again.
The solvent ratios in Table 1 are by volume. The ability to swell silicone by 30% or more is believed to be suitable for increasing the loading capacity of silicone. The ability to swell silicone by 50% or more is believed to be more suitable for increasing the loading capacity of silicone.

[2] = for increase in drug loading, pre-extracted relative to non-extracted silicone discs: 2 hour plus 24 hour extracted; for average drug loaded into silicone discs: 24 hr loading, HPLC of 25 mL extract
Protocol: One sheet was removed after 2 hours; the other was removed after 24. The sheets were allowed to dry for 24 hours.
Nine 1¼ inch discs were punched from each sheet of silicone. The discs (27) were separated into 9 jars (3 per jar). Each jar contained a drug loading solution. Three jars contained clonidine, three contained dexamethasone and three contained sulindac.
After stirring 24 hrs in solution, all the samples were removed, rinsed twice for approximately 10 seconds in a sufficient volume of methanol and allowed to dry overnight in open air on a drying rack. The samples were then stored until extraction in jars in a nitrogen purged foil bag.
Each sample was cut in half, and the half sample was weighed. Initially only the clonidine and sulindac samples were analyzed.
All samples were extracted in THF/ethanol 4:1 (15 mL) for 30 min; then re-extracted in THF/ethanol 4:1 (10 mL) for 20 min. The first and second extracts were combined in a volumetric flask and any additional volume was added to make exactly 25 mL of solution. These samples were stored in at 4° C. until analysis.
HPLC Analysis was performed using an Agilent 1100 stack. For dexamethasone, isocratic separation using acetonytrile:water (45:55) was performed. A Zorbax SB-Phenyl, 5 μm, 4.6×150 mm, column (Agilent Technologies, Inc.) was used at a column temperature of 30° C. The flow rate was 10 mL/min, with a run time of 15 minutes. Dexamethasone was detected by UV at 245 nm.
For sulindac, isocratic separation using 0.1% phosphoric acid in acetonitrile:water (38:62) was performed. A PRONTOSIL 120-5-C18-ace-EPS, 5 μm, 4.6×150 mm, column was used at a column temperature of 37° C. The autosampler temperature was 15° C. The flow rate was 1.0 mL/min, with a run time of 35 min. Sulindac was detected by UV at 285 nm. Injection volumes were 10-50 μL.
The autosample temperature was ambient temperature. Isocratic separation using a mobile phase A (MPA):mobile phase B (MPB) ratio of 52:48 was employed. MPA consisted of 2.2 gm 1-octanesulfonic acid, sodium salt for each liter of nanopure water. MPB was HPLC Grade Methanol. The flow rate was 1 mL/min, with a run time of 15 minutes. […] The injection volume was 10 μL

[3] = Solubility of drug in the loading solution; format: physicochemical; details: methanol/butyl acetate loading solution, extra 5 mL methanol added
[4] = Loading of minocycline and rifampin into pre-extracted and non-extracted silicone boots; format: physicochemical; details: for drug concentration in polymer: loading 1 hour in butyl acetate:methanol 85:15
Protocol: Molded, cured silicone (Dow-Q7 4850) boots designed to fit snuggly around Restore® implantable neurostimulators (Medtroinc, Inc.) were placed in a concentrated drug loading solution containing rifampin (30 mg/ml) and minocycline (15 mg/ml) in butyl acetate:methanol (85:15, by volume). The polymer was allowed to swell in this solution for one hour, rinsed and then dried overnight.
The efficiency of various solvents to extract material from cured silicone was tracked by determining the weight loss post-extraction. […] It was initially assumed that subjecting the polymer to drug loading should fulfill the same function as pre-extracting the material prior to drug loading.
One thought was that the existence of extractables in the loading solution might increase the solubility of the drugs in solution compared to solubility in the silicone, thus lowering the partitioning of drug into the silicone. Eight non-extracted silicone boots and 10 pre-extracted boots were drug loaded in separate loading solutions. Two additional pre-extracted silicone boots were then loaded in the formulation used to load the non-extracted boots. According to the hypothesis, the loading solution used for the non-extracted boots would theoretically contain higher levels of silicone extractables, and result in lower loading of the pre-extracted boots.

[5] = not pre-extracted with butyl acetate
[6] = pre-extracted with butyl acetate for 2 hours
[7] = pre-extracted with butyl acetate for 24 hours

CC(C)=O [Acetone]
% Weight Increase [1]: 15%

CCCCOC(C)=O [Butyl Acetate]
% Weight Increase [1]: 73%

ClC(Cl)Cl [Chloroform]
% Weight Increase [1]: 166%

C1CCCCC1 [Cyclohexane]
% Weight Increase [1]: 85%

C1CCCC1 [Cyclopentane]
% Weight Increase [1]: 62%

CCOC(C)=O [Ethyl acetate]
% Weight Increase [1]: 54%

CC(C)O [Isopropyl alcohol]
% Weight Increase [1]: 13%

C1CCOC1 [THF]
% Weight Increase [1]: 105%

Cc1ccccc1 [Toluene]
% Weight Increase [1]: 85%

Clc1cccc(Cl)c1N=C1NCCN1 [clonidine]
increase in drug loading, pre-extracted relative to non-extracted silicone discs [2]: ~6%
average drug loaded into silicone discs [2, 5]: 19.41 ± 0.20 µg/mL
average drug loaded into silicone discs [2, 6]: 20.59 ± 0.20 µg/mL
average drug loaded into silicone discs [2, 7]: 20.49 ± 0.22 µg/mL

C[C@@H]1C[C@H]2[C@@H]3CCC4=CC(=O)C=C[C@]4(C)[C@@]3(F)[C@@H](O)C[C@]2(C)[C@@]1(O)C(=O)CO [dexamethasone]
solubility in loading solution [3]: substantial insolubility; also recorded: did not seem to dissolve well

CO[C@H]1/C=C/O[C@@]2(C)Oc3c(C)c(O)c4c(O)c(c(/C=N/N5CCN(C)CC5)c(O)c4c3C2=O)NC(=O)/C(C)=C\C=C\[C@H](C)[C@H](O)[C@@H](C)[C@@H](O)[C@@H](C)[C@H](OC(C)=O)[C@@H]1C [rifampin]
drug concentration in polymer ([4]; non-extracted silicone boots): 2.61 mg/g
drug concentration in polymer ([4]; silicone boots pre-extracted with butyl acetate): 3.28 mg/g
increase in drug concentration, pre-extracted vs non-extracted ([4]; silicone boots, same lot): 25.7%

CC1=C(CC(=O)O)c2cc(F)ccc2/C1=C\c1ccc([S+](C)[O-])cc1 (stereo not drawn) [sulindac]
increase in drug loading, pre-extracted relative to non-extracted silicone discs [2]: ~19%
average drug loaded into silicone discs [2, 5]: 1.56 ± 0.03 µg/mL
average drug loaded into silicone discs [2, 6]: 1.86 ± 0.06 µg/mL
average drug loaded into silicone discs [2, 7]: 1.88 ± 0.11 µg/mL
